Source: patent EP4813463A2, “TYK2 INHIBITORS AND COMPOSITIONS AND METHODS THEREOF” (Lynk Pharmaceuticals Co. Ltd., priority 2023, dated 2024)

How the values were obtained:
TYK2-JH2 domain = target: T1, TYK2-JH2 domain (Homo sapiens, UniProt P29597); test: Binding activity test for JH2 domain of TYK2 (Tb-antibody/tracer FRET); conditions: for IC50: JH2 domain enzyme, 60 min at 25°C, then 4°C overnight, read-out: TYK2 JH2 Binding IC50; for JAK1/TYK2 selectivity: ratio of JAK1 JH2 to TYK2 JH2 binding IC50
T1 construct: JAK1-JH2 domain or TYK2-JH2 domain enzyme in assay buffer
Outline: (§1)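 IC50 values (nM) come from TR-FRET readings taken after a 25°C incubation followed by overnight at 4°C. Each well held JH2 domain protein, Tb-antibody, tracer and test compound titrated in 11 threefold steps, with DMSO high and low controls.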

JAK1-JH2 domain = target: T2, JAK1-JH2 domain (Homo sapiens, UniProt P23458); test: Binding activity test for JH2 domain of JAK1 (Tb-antibody/tracer FRET); conditions: JH2 domain enzyme; 60 min at 25°C, then 4°C overnight; read-out: JAK1 JH2 Binding IC50
T2 construct: JAK1-JH2 domain or TYK2-JH2 domain enzyme in assay buffer
Outline: as §1

[1] = tested on: Ba/F3-FL-TYK2-P760L cells; test: Anti-proliferative assay in engineered Ba/F3 cells (Cell-Titer Glo, 72 h); assay type: cell-based; conditions: Mus musculus, BaF3, 72 h, 72 h compound treatment, concentration that causes 50% growth inhibition, read-out: Baf3-FL-T2P760L
Outline: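 IC50 from luminescent ATP viability after 72 h compound exposure (37 °C, 5% CO2), % inhibition normalised to DMSO-treated cells minus medium blank. IL-3-free Ba/F3-FL-TYK2-P760L (Tel-JAK fusion) cells in 10% FBS RPMI-1640 received 9 three-fold doses, top 20 µM, 0.1% DMSO.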

T1 sequence (P29597 589-875 limits assumed): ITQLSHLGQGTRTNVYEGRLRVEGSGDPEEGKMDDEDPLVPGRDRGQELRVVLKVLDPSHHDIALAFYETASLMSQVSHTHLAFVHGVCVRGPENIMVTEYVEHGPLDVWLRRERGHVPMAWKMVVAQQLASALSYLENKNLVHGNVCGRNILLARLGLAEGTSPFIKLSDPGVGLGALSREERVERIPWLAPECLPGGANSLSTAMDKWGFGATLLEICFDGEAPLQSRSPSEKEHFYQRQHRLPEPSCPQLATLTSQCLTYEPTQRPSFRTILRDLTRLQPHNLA
T2 sequence (P23458 583-855 limits assumed): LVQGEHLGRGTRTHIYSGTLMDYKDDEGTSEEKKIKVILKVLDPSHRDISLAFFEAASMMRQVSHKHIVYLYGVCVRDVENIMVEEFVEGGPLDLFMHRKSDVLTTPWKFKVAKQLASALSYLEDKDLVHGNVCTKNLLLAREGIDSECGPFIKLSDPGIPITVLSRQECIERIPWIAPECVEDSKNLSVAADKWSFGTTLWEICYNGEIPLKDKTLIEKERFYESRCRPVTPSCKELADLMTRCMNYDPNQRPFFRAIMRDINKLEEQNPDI

In the case of `COC(=O)c1cnc(NC(=O)C2CC2)cc1Nc1nn(C)c2ccc(C(C)C(F)(F)F)c(OC)c12` (stereo not drawn) [Example 123, Methyl 6-(cyclopropanecarboxamido)-4-((4-methoxy-1-methyl-5-(1,1,1-trifluoropropan-2-yl)-1H-indazol-3-yl)amino)nicotinate], the IC50 (TYK2-JH2 domain) is reported as 0.37 nM, the JAK1/TYK2 selectivity (TYK2-JH2 domain) is reported as 470.33 and the IC50 (JAK1-JH2 domain) is reported as 174 nM. The IC50 [1] was 88.3 nM.
With `[2H]C([2H])([2H])O[C@@H](c1ccc2c(c(Nc3cc(NC(=O)C4CC45CC5)ncc3C(=O)OC)nn2C)c1OC)C(F)(F)F` (stereo partly drawn) [Example 136, Methyl 4-((4-methoxy-1-methyl-5-((S)-2,2,2-trifluoro-1-(methoxy-d3)ethyl)-1H-indazol-3-yl)amino)-6-(spiro[2.2]pentane-1-carboxamido)nicotinate] the IC50 (TYK2-JH2 domain) was 0.21 nM, the JAK1/TYK2 selectivity (TYK2-JH2 domain) was 370.63 and the IC50 (JAK1-JH2 domain) was 77.8 nM. For the same compound, the IC50 [1] was 21.2 nM.
Compound `CCC(=O)c1cnc(NC(=O)C2CC2)cc1Nc1nn(C)c2ccc([C@H](O)C(F)(F)F)c(OC)c12` [Example 140, (S)-N-(4-((4-Methoxy-1-methyl-5-(2,2,2-trifluoro-1-hydroxyethyl)-1H-indazol-3-yl)amino)-5-propionylpyridin-2-yl)cyclopropanecarboxamide] has an IC50 (TYK2-JH2 domain) of 0.061 nM, a JAK1/TYK2 selectivity (TYK2-JH2 domain) of 71.43 and an IC50 (JAK1-JH2 domain) of 4.36 nM. The IC50 [1] was 0.463 nM.
`[2H]C([2H])([2H])C([2H])([2H])C(=O)c1cnc(NC(=O)C2CC2)cc1Nc1nn(C)c2ccc([C@H](O)C(F)(F)F)c(OC)c12` [Example 154, (S)-N-(4-((4-methoxy-1-methyl-5-(2,2,2-trifluoro-1-hydroxyethyl)-1H-indazol-3-yl)amino)-5-(propanoyl-d5)pyridin-2-yl)cyclopropanecarboxamide] showed an IC50 (TYK2-JH2 domain) of 0.066 nM, a JAK1/TYK2 selectivity (TYK2-JH2 domain) of 104.27 and an IC50 (JAK1-JH2 domain) of 6.88 nM. For the same compound, the IC50 [1] was 0.455 nM.
Work on `[2H]C([2H])([2H])CC(=O)c1cnc(NC(=O)C2CC2)nc1Nc1cccc(-c2cnn(C)n2)c1OC` [Example 167, N-(4-((2-methoxy-3-(2-methyl-2H-1,2,3-triazol-4-yl)phenyl)amino)-5-(propanoyl-3,3,3-d3)pyrimidin-2-yl)cyclopropanecarboxamide] yielded an IC50 (TYK2-JH2 domain) of 0.275 nM, a JAK1/TYK2 selectivity (TYK2-JH2 domain) of 116.34 and an IC50 (JAK1-JH2 domain) of 32 nM. It also gave an IC50 [1] of 60.9 nM.
Work on `COc1c(Nc2cc(NC(=O)C3CC3)ncc2C(C)(F)F)cccc1-c1cnn(C)n1` [Example 168, N-(5-(1,1-difluoroethyl)-4-((2-methoxy-3-(2-methyl-2H-1,2,3-triazol-4-yl)phenyl)amino)pyridin-2-yl)cyclopropanecarboxamide] yielded an IC50 (TYK2-JH2 domain) of 0.27 nM, a JAK1/TYK2 selectivity (TYK2-JH2 domain) of 3.81 and an IC50 (JAK1-JH2 domain) of 1.03 nM. For the same compound, the IC50 [1] was 19.1 nM.
With `COC(=O)c1cnc(Nc2ccc(F)cn2)cc1Nc1nn(C)c2ccc([C@H](OC)C(F)(F)F)c(OC)c12` [Example 169, Methyl (S)-6-((5-fluoropyridin-2-yl)amino)-4-((4-methoxy-1-methyl-5-(2,2,2-trifluoro-1-methoxyethyl)-1H-indazol-3-yl)amino)nicotinate] the IC50 (TYK2-JH2 domain) was 0.19 nM, the JAK1/TYK2 selectivity (TYK2-JH2 domain) was >1571 and the IC50 (JAK1-JH2 domain) was > 298 nM. For the same compound, the IC50 [1] was 8.33 nM.
With `[2H]C([2H])([2H])NC(=O)c1cnc(Nc2ccc(F)cn2)cc1Nc1nn(C)c2ccc([C@H](OC)C(F)(F)F)c(OC)c12` [Example 171, (S)-6-((5-fluoropyridin-2-yl)amino)-4-((4-methoxy-1-methyl-5-(2,2,2-trifluoro-1-methoxyethyl)-1H-indazol-3-yl)amino)-N-(methyl-d3)nicotinamide] the IC50 (TYK2-JH2 domain) was 0.171 nM, the JAK1/TYK2 selectivity (TYK2-JH2 domain) was 99.17 and the IC50 (JAK1-JH2 domain) was 17 nM. The IC50 [1] was 1.03 nM.
For `[2H]C([2H])([2H])OCc1ccc2c(c(Nc3cc(NC(=O)C4CC4)ncc3C(F)(F)CC)nn2C)c1OC` [Example 172, N-(5-(1,1-difluoropropyl)-4-((4-methoxy-5-((methoxy-d3)methyl)-1-methyl-1H-indazol-3-yl)amino)pyridin-2-yl)cyclopropanecarboxamide], the IC50 (TYK2-JH2 domain) was 0.79 nM, the JAK1/TYK2 selectivity (TYK2-JH2 domain) was 22.99 and the IC50 (JAK1-JH2 domain) was 18.2 nM. It also gave an IC50 [1] of 21.9 nM.
`[2H]C([2H])([2H])NC(=O)c1cnc(Nc2ccc(N3CCOCC3)cn2)cc1Nc1nn(C)c2ccc([C@H](OC)C(F)(F)F)c(OC)c12` [Example 173, (S)-4-((4-methoxy-1-methyl-5-(2,2,2-trifluoro-1-methoxyethyl)-1H-indazol-3-yl)amino)-N-(methyl-d3)-6-((5-morpholinopyridin-2-yl)amino)nicotinamide] was tested, and the IC50 (TYK2-JH2 domain) was 0.161 nM, the JAK1/TYK2 selectivity (TYK2-JH2 domain) was 14.83 and the IC50 (JAK1-JH2 domain) was 2.39 nM. The IC50 [1] was 0.401 nM.
`CCC(F)(F)c1cnc(NC(=O)C2CC2)cc1Nc1nccc(-c2cnn(C)n2)c1OC` [Example 174, N-(5-(1,1-difluoropropyl)-4-((3-methoxy-4-(2-methyl-2H-1,2,3-triazol-4-yl)pyridin-2-yl)amino)pyridin-2-yl)cyclopropanecarboxamide] gave an IC50 (TYK2-JH2 domain) of 0.86 nM, a JAK1/TYK2 selectivity (TYK2-JH2 domain) of 71.45 and an IC50 (JAK1-JH2 domain) of 61.4 nM. For the same compound, the IC50 [1] was 15.4 nM.
In the case of `COC(=O)c1cnc(Nc2ccc(Cl)cn2)cc1Nc1nn(C)c2ccc([C@H](OC)C(F)(F)F)c(OC)c12` [Example 175, Methyl (S)-6-((5-chloropyridin-2-yl)amino)-4-((4-methoxy-1-methyl-5-(2,2,2-trifluoro-1-methoxyethyl)-1H-indazol-3-yl)amino)nicotinate], the IC50 (TYK2-JH2 domain) is reported as 0.384 nM, the JAK1/TYK2 selectivity (TYK2-JH2 domain) is reported as >777.34 and the IC50 (JAK1-JH2 domain) is reported as > 298 nM. It also gave an IC50 [1] of 18.1 nM.
`COC1CN(c2ccc3nc(Nc4cc(NC(=O)C5CC5)ncc4C(C)(F)F)nn3c2)C1` [Example 176, N-(5-(1,1-difluoroethyl)-4-((6-(3-methoxyazetidin-1-yl)-[1,2,4]triazolo[1,5-a]pyridin-2-yl)amino)pyridin-2-yl)cyclopropanecarboxamide] showed an IC50 (TYK2-JH2 domain) of 0.768 nM, a JAK1/TYK2 selectivity (TYK2-JH2 domain) of 22.21 and an IC50 (JAK1-JH2 domain) of 17.1 nM. The IC50 [1] was 13.3 nM.
`COc1c(-c2cnn(C)n2)ccnc1Nc1cc(NC(=O)C2CC2)ncc1C(C)(F)F` [Example 177, N-(5-(1,1-Difluoroethyl)-4-((3-methoxy-4-(2-methyl-2H-1,2,3-triazol-4-yl)pyridin-2-yl)amino)pyridin-2-yl)cyclopropanecarboxamide] gave an IC50 (TYK2-JH2 domain) of 0.749 nM, a JAK1/TYK2 selectivity (TYK2-JH2 domain) of 8.50 and an IC50 (JAK1-JH2 domain) of 6.37 nM. The IC50 [1] was 15.2 nM.
For `COC(=O)c1cnc(Nc2ccn(C)n2)cc1Nc1nn(C)c2ccc([C@H](OC)C(F)(F)F)c(OC)c12` [Example 180, Methyl (S)-4-((4-methoxy-1-methyl-5-(2,2,2-trifluoro-1-methoxyethyl)-1H-indazol-3-yl)amino)-6-((1-methyl-1H-pyrazol-3-yl)amino)nicotinate], the IC50 (TYK2-JH2 domain) was 0.176 nM, the JAK1/TYK2 selectivity (TYK2-JH2 domain) was >1696 and the IC50 (JAK1-JH2 domain) was > 298 nM. The IC50 [1] was 14.3 nM.
`COCCn1ccc(Nc2cc(Nc3nn(C)c4ccc([C@H](OC)C(F)(F)F)c(OC)c34)c(C(=O)OC)cn2)n1` [Example 181, Methyl (S)-4-((4-methoxy-1-methyl-5-(2,2,2-trifluoro-1-methoxyethyl)-1H-indazol-3-yl)amino)-6-((1-(2-methoxyethyl)-1H-pyrazol-3-yl)amino)nicotinate] was tested, and the IC50 (TYK2-JH2 domain) was 0.309 nM, the JAK1/TYK2 selectivity (TYK2-JH2 domain) was >966 and the IC50 (JAK1-JH2 domain) was > 298 nM. For the same compound, the IC50 [1] was 35.2 nM.
`[2H]C([2H])([2H])NC(=O)c1cnc(Nc2cc(CN3CCOCC3)n(C)n2)cc1Nc1nn(C)c2ccc([C@H](OC)C(F)(F)F)c(OC)c12` [Example 182, (S)-4-((4-Methoxy-1-methyl-5-(2,2,2-trifluoro-1-methoxyethyl)-1H-indazol-3-yl)amino)-N-(methyl-d3)-6-((1-methyl-5-(morpholinomethyl)-1H-pyrazol-3-yl)amino)nicotinamide] showed an IC50 (TYK2-JH2 domain) of 0.141 nM, a JAK1/TYK2 selectivity (TYK2-JH2 domain) of 13.95 and an IC50 (JAK1-JH2 domain) of 1.97 nM. It also gave an IC50 [1] of 0.817 nM.
`CCC(F)(F)c1cnc(NC(=O)C2CC2)cc1Nc1cccc(-c2cnn(C)n2)c1OC` [Example 184, N-(5-(1,1-Difluoropropyl)-4-((2-methoxy-3-(2-methyl-2H-1,2,3-triazol-4-yl)phenyl)amino)pyridin-2-yl)cyclopropanecarboxamide] gave an IC50 (TYK2-JH2 domain) of 0.216 nM, a JAK1/TYK2 selectivity (TYK2-JH2 domain) of 31.71 and an IC50 (JAK1-JH2 domain) of 6.85 nM. It also gave an IC50 [1] of 14.9 nM.
Compound `CNC(=O)c1nnc(NC(=O)C2CC2)cc1Nc1nc2ccccn2n1` [Example 185, 4-([1,2,4]Triazolo[1,5-a]pyridin-2-ylamino)-6-(cyclopropanecarboxamido)-N-methylpyridazine-3-carboxamide] has an IC50 (TYK2-JH2 domain) of 0.565 nM, a JAK1/TYK2 selectivity (TYK2-JH2 domain) of 16.30 and an IC50 (JAK1-JH2 domain) of 9.21 nM. It also gave an IC50 [1] of 89.1 nM.
With `CNC(=O)c1cnc(NC(=O)C2CC2)cc1Nc1nn(C)c2ccc([C@H](O)C(F)(F)F)c(OC)c12` [Example 189, (S)-6-(Cyclopropanecarboxamido)-4-((4-methoxy-1-methyl-5-(2,2,2-trifluoro-1-hydroxyethyl)-1H-indazol-3-yl)amino)-N-methylnicotinamide] the IC50 (TYK2-JH2 domain) was 0.054 nM, the JAK1/TYK2 selectivity (TYK2-JH2 domain) was 64.91 and the IC50 (JAK1-JH2 domain) was 3.5 nM. For the same compound, the IC50 [1] was 0.119 nM.
With `CNC(=O)c1cnc(NC(=O)C2CC2)cc1Nc1nn(C)c2ccc([C@H](OC)C(F)(F)F)c(OC)c12` [Example 190, (S)-6-(Cyclopropanecarboxamido)-4-((4-methoxy-1-methyl-5-(2,2,2-trifluoro-1-methoxyethyl)-1H-indazol-3-yl)amino)-N-methylnicotinamide] the IC50 (TYK2-JH2 domain) was 0.076 nM, the JAK1/TYK2 selectivity (TYK2-JH2 domain) was 25.71 and the IC50 (JAK1-JH2 domain) was 1.95 nM. It also gave an IC50 [1] of 0.196 nM.
